Data: patent publication US5807983A, “GNRH antagonist betides” (The Salk Institute for Biological Studies, priority 1996, dated 1998)

System: ovulation in mature female Sprague-Dawley rats
Test: standard in vivo rat anti-ovulation test
Settings: injected in bacteriostatic water at about noon on the day of proestrus
Description: The betide is assayed in vivo to determine its effectiveness to prevent ovulation in female rats. Inthis test, a specified number of mature female Sprague-Dawley rats, e.g. five to ten, each having a body weight from 225 to 250 grams, are injected with a specified microgram dosage of the betide in bacteriostatic water at about noon on the day of proestrus. Proestrus is the […]. A separate female rat group is used as a control to which the peptide is not administered. Each of the control female rats ovulates on the evening of proestrus; the number of the rats treated which ovulate is recorded.

| SMILES | anti-ovulatory activity: rats ovulating out of rats treated (dosage 1 μg) | anti-ovulatory activity: rats ovulating out of rats treated (dosage 2.5 μg) | anti-ovulatory activity: rats ovulating out of rats treated (dosage 0.5 μg) | anti-ovulatory activity: rats ovulating out of rats treated (dosage 5 μg) |
| --- | --- | --- | --- | --- |
| CC(=O)Nc1ccc(C[C@H](NC(=O)[C@H](CO)NC(=O)C(NC(=O)c2cccnc2)NC(=O)[C@@H](Cc2ccc(Cl)cc2)NC(=O)[C@@H](Cc2ccc3ccccc3c2)NC(C)=O)C(=O)N[C@H](Cc2ccc(NC(C)=O)cc2)C(=O)N[C@@H](CC(C)C)C(=O)N[C@@H](CCCCNC(C)C)C(=O)N2CCC[C@H]2C(=O)N[C@H](C)C(N)=O)cc1 (single isomer, unassigned) [Betide No. 1 isomer (1), Ac-D-2Nal-(4Cl)D-Phe-γ-(3-pyridyl)amidoGly-Ser-Aph(acetyl)-D-Aph(acetyl)-Leu-Lys(isopropyl)-Pro-D-Ala-NH2] | all 3 rats ovulate | 0 out of 7 | – | – |
| CC(=O)Nc1ccc(C[C@H](NC(=O)[C@H](CO)NC(=O)C(NC(=O)c2cccnc2)NC(=O)[C@@H](Cc2ccc(Cl)cc2)NC(=O)[C@@H](Cc2ccc3ccccc3c2)NC(C)=O)C(=O)N[C@H](Cc2ccc(NC(C)=O)cc2)C(=O)N[C@@H](CC(C)C)C(=O)N[C@@H](CCCCNC(C)C)C(=O)N2CCC[C@H]2C(=O)N[C@H](C)C(N)=O)cc1 (single isomer, unassigned) [Betide No. 1 isomer (2), Ac-D-2Nal-(4Cl)D-Phe-γ-(3-pyridyl)amidoGly-Ser-Aph(acetyl)-D-Aph(acetyl)-Leu-Lys(isopropyl)-Pro-D-Ala-NH2] | 6 out of 14 | 0 out of 5 | 3 out of 4 | – |
| CC(=O)Nc1ccc(C[C@H](NC(=O)C(NC(=O)[C@@H](Cc2cccnc2)NC(=O)[C@@H](Cc2ccc(Cl)cc2)NC(=O)[C@@H](Cc2ccc3ccccc3c2)NC(C)=O)N(C)C=O)C(=O)N[C@H](Cc2ccc(NC(C)=O)cc2)C(=O)N[C@@H](CC(C)C)C(=O)N[C@@H](CCCCNC(C)C)C(=O)N2CCC[C@H]2C(=O)N[C@H](C)C(N)=O)cc1 (single isomer, unassigned) [Betide No. 2 one isomer, Ac-D-2Nal-D-4Cpa-D-3Pal-D/L-(methyl,formyl)aminoGly-Aph(Ac)-D-Aph(Ac)-Leu- Lys(isopropyl)-Pro-D-Ala-NH2] | – | 5 out of 8 | – | – |
| CC(=O)Nc1ccc(C[C@H](NC(=O)C(NC(=O)[C@@H](Cc2cccnc2)NC(=O)[C@@H](Cc2ccc(Cl)cc2)NC(=O)[C@@H](Cc2ccc3ccccc3c2)NC(C)=O)N(C)C=O)C(=O)N[C@H](Cc2ccc(NC(C)=O)cc2)C(=O)N[C@@H](CC(C)C)C(=O)N[C@@H](CCCCNC(C)C)C(=O)N2CCC[C@H]2C(=O)N[C@H](C)C(N)=O)cc1 (single isomer, unassigned) [Betide No. 2 other distereomer, Ac-D-2Nal-D-4Cpa-D-3Pal-D/L-(methyl,formyl)aminoGly-Aph(Ac)-D-Aph(Ac)-Leu- Lys(isopropyl)-Pro-D-Ala-NH2] | – | 8 out of 8 | – | – |
| CC(=O)Nc1ccc(C[C@H](NC(=O)C(NC(=O)CO)NC(=O)[C@@H](Cc2cccnc2)NC(=O)[C@@H](Cc2ccc(Cl)cc2)NC(=O)[C@@H](Cc2ccc3ccccc3c2)NC(C)=O)C(=O)N[C@H](Cc2ccc(NC(C)=O)cc2)C(=O)N[C@@H](CC(C)C)C(=O)N[C@@H](CCCCNC(C)C)C(=O)N2CCC[C@H]2C(=O)N[C@H](C)C(N)=O)cc1 (single isomer, unassigned) [Betide No. 2A one of the isomers, Ac-D-2Nal-D-4Cpa-D-3Pal-D/L-Agl(HO-Ac)Aph(Ac)-D-Aph(Ac)-Leu-Lys(isopropyl)-Pro-D-Ala-NH2] | – | – | – | 2 out of 8 |
| CC(=O)Nc1ccc(C[C@H](NC(=O)C(NC(=O)CO)NC(=O)[C@@H](Cc2cccnc2)NC(=O)[C@@H](Cc2ccc(Cl)cc2)NC(=O)[C@@H](Cc2ccc3ccccc3c2)NC(C)=O)C(=O)N[C@H](Cc2ccc(NC(C)=O)cc2)C(=O)N[C@@H](CC(C)C)C(=O)N[C@@H](CCCCNC(C)C)C(=O)N2CCC[C@H]2C(=O)N[C@H](C)C(N)=O)cc1 (single isomer, unassigned) [Betide No. 2A other isomer, Ac-D-2Nal-D-4Cpa-D-3Pal-D/L-Agl(HO-Ac)Aph(Ac)-D-Aph(Ac)-Leu-Lys(isopropyl)-Pro-D-Ala-NH2] | – | – | – | 4 out of 8 |
